Where no end group is shown, it is not given here.
Tests used:
[1] = tested on: skin tumors in mice initiated with DMBA; test: Tumor-promoting effect: TPA replaced by disitertide cream in DMBA-initiated mice; type: in vivo, Swiss albino mice; settings: group 2
Description: The tumors were induced on the shaved dorsal skin of mice aged 6-8 weeks through a single topical application of DMBA (32 μg in 200 μl of acetone), followed by treatment twice a week with 12.5 μg of TPA in 200 μl of acetone (10^−4 M) for 12 weeks. In addition, groups of mice were treated with a topical formulation in the form of cream that contained disitertide or not, as specified below. Each week the number of tumors bigger than 2 mm in diameter were recorded in each mouse. At the end of the experiment, the animals were anesthetized and killed (32 weeks after the initiation with DMBA), and the tumors were fixed in 10% formaldehyde and embedded in paraffin for the histological studies.
(§1) In order to test the possible tumor-promoting effect of disitertide, TPA was replaced by a treatment with a topical formulation cream containing disitertide (group 2, consisting of 5 animals) or with vehicle only (group 1, consisting of 5 mice) during the promotion phase of chemical carcinogenesis. Similarly, the possible carcinogenic activity of disitertide was analyzed in a group of 5 mice by repeated applications of disitertide every 2 days for 23 weeks. Since papillomas appear at around 7-8 weeks post-initiation, mice initiated with DMBA and promoted with TPA were further treated with disitertide every 2 days for 4 and 12 weeks (groups 5 and 6, respectively, 10 animals each), in order to test whether disitertide could prevent skin carcinogenesis. Treatment with disitertide started in the same week in which mice were initiated with DMBA (week 0), and applications with this and TPA were performed on alternate days. As a control, a group of mice (group 4, consisting of 5 animals) were treated with vehicle only (control cream) for 12 weeks. Finally, a group of animals with tumors (group 7, consisting of 10 animals) were treated with disitertide every 2 days for 20 weeks from week 12 to week 32 after initiation with DMBA. This group of mice was included in order to test a possible anti-tumor effect of the peptide. Disitertide was applied at a dose of 60 μg in 200 μl of the topical formulation as cream, except for mice of group 7 in which the dose of disitertide was increased up to 120 μg (in 400 μl of cream).

[2] = tested on: normal skin; parameters: species or system mice; settings: mouse, in vivo
Description: as §1, with “Disitertide was applied at a dose of 60 μg in 200 μl of the topical formulation as cream, except for mice of group 7 in which the dose of disitertide was increased up to 120 μg (in 400 μl of cream).” left out

[3] = biological target: T1, TGF-β1 (Homo sapiens, UniProt P01137); settings: shown previously, WO 00/31135; cited from earlier work
T1 construct: host or cells: My-1-Lu cell line (so in the source)
T1 sequence (P01137 279-390 limits assumed, species assumed): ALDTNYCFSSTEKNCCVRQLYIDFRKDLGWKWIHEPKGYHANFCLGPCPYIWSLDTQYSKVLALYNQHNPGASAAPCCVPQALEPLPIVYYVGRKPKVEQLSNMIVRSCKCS

Row | Mean number of tumors per mouse at week 10 post-initiation ([1]; DMBA initiation, disitertide cream as promoter instead of TPA, 12 weeks, tumors >2 mm, week 10) | Mean number of tumors per mouse at week 14 post-initiation ([1]; DMBA initiation, disitertide cream as promoter instead of TPA, 12 weeks, tumors >2 mm, week 14) | Mean number of tumors per mouse at week 25 post-initiation ([1]; DMBA initiation, disitertide cream as promoter instead of TPA, 12 weeks, tumors >2 mm, week 25) | Mean number of tumors per mouse at week 32 post-initiation ([1]; DMBA initiation, disitertide cream as promoter instead of TPA, 12 weeks, tumors >2 mm, week 32) | Tumor induction when disitertide replaces TPA as promoter ([1]; DMBA-initiated mice promoted with disitertide cream for 12 weeks) | Effect on normal skin after repeated applications [2] | Substance | Capacity to act as TGF-β1 inhibitor [3]
1 | 0.0 | 0.0 | 0.0 | 0.0 | no tumors were induced | no deleterious effect on normal skin | TSLDASIIWAMMQN [disitertide] | –
2 | – | – | – | – | – | – | P54: mammal homologue peptide of disitertide, SEQ ID NO: 2, amino acids 731-742 of rat type III receptor of TGF-β1 (TSLDATMIWTMM; P54 peptide) | act as TGF-β1 inhibitors
